Results taken from patent publication US10344060B2 (priority 2013, dated 2019).
Like-named read-outs stand apart in the source and are kept apart here.

Assays:
Assay in all cases: cell-based
hNav1.5 = hNav1.5 (Homo sapiens, UniProt Q14524); details: IonWorks Quattro, read-out: IC50 (μM) Nav1.5
hNav1.4 = hNav1.4 (Homo sapiens, UniProt P35499); type: cell-based; details: for IC50: IonWorks Quattro, read-out: IC50 (μM) Nav1.4; for Nav1.4/Nav1.7: ratio of IonWorks Quattro IC50 values
hNav1.7 [1] = target: T1, hNav1.7 (Homo sapiens, UniProt Q15858); type: cell-based
hNav1.3 = hNav1.3 (Homo sapiens, UniProt Q9NY46); details: IonWorks Quattro, read-out: IC50 (μM) Nav1.3
hNav1.7 [2] = target: T1, hNav1.7; details: read-out: IC50 (μM) Nav1.7
[3] = ratio of PX tonic IC50 values, Table 11

T1 sequence (Q15858 whole entry): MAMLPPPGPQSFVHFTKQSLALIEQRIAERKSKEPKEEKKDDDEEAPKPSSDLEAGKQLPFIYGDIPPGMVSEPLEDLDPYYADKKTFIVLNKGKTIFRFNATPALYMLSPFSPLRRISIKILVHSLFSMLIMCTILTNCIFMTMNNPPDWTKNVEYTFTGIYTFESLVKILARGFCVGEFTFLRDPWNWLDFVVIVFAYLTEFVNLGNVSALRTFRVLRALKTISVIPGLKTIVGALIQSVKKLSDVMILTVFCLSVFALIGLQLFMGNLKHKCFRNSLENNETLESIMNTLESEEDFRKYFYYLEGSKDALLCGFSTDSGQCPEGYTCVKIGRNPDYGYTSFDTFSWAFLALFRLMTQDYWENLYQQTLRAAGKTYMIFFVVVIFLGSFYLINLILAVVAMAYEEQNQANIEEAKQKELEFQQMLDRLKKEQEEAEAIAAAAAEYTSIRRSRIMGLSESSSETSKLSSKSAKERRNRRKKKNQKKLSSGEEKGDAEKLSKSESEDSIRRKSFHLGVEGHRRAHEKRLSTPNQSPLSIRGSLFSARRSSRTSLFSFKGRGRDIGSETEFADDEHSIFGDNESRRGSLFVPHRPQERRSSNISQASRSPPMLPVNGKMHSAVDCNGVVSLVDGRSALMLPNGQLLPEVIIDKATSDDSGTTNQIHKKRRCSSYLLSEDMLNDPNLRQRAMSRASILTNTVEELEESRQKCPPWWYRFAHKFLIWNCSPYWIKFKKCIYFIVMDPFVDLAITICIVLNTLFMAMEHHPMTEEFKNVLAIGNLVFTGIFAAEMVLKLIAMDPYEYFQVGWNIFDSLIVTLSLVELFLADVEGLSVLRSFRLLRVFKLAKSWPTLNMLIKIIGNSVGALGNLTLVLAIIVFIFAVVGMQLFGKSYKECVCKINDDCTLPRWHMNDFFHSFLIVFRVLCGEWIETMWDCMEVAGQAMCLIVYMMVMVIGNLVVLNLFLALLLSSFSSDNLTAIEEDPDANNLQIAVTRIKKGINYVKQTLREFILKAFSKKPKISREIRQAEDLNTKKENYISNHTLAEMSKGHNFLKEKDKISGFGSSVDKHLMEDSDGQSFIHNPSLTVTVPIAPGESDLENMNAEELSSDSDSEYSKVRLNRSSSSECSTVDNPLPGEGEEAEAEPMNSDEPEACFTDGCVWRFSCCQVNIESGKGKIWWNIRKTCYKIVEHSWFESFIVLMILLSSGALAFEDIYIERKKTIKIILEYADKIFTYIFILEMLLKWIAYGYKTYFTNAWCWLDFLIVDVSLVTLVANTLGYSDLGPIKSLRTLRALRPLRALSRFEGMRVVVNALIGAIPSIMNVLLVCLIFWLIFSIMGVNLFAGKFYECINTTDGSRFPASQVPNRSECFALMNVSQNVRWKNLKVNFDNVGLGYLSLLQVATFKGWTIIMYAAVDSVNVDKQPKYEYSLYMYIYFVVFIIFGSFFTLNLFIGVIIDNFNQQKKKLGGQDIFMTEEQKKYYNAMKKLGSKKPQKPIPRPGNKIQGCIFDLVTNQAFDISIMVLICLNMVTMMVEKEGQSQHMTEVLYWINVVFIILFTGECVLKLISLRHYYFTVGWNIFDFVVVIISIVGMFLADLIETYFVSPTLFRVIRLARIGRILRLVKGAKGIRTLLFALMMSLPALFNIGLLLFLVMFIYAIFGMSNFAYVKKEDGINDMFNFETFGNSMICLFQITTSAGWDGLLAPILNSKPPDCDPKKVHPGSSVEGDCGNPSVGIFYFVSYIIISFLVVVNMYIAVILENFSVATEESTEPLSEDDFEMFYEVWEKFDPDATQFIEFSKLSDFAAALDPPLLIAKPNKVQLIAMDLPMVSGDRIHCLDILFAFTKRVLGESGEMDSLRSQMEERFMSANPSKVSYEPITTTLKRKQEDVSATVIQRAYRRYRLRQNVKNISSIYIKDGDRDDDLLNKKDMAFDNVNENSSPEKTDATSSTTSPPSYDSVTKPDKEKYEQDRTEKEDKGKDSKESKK
Chain of hNav1.5 (Q14524 whole entry): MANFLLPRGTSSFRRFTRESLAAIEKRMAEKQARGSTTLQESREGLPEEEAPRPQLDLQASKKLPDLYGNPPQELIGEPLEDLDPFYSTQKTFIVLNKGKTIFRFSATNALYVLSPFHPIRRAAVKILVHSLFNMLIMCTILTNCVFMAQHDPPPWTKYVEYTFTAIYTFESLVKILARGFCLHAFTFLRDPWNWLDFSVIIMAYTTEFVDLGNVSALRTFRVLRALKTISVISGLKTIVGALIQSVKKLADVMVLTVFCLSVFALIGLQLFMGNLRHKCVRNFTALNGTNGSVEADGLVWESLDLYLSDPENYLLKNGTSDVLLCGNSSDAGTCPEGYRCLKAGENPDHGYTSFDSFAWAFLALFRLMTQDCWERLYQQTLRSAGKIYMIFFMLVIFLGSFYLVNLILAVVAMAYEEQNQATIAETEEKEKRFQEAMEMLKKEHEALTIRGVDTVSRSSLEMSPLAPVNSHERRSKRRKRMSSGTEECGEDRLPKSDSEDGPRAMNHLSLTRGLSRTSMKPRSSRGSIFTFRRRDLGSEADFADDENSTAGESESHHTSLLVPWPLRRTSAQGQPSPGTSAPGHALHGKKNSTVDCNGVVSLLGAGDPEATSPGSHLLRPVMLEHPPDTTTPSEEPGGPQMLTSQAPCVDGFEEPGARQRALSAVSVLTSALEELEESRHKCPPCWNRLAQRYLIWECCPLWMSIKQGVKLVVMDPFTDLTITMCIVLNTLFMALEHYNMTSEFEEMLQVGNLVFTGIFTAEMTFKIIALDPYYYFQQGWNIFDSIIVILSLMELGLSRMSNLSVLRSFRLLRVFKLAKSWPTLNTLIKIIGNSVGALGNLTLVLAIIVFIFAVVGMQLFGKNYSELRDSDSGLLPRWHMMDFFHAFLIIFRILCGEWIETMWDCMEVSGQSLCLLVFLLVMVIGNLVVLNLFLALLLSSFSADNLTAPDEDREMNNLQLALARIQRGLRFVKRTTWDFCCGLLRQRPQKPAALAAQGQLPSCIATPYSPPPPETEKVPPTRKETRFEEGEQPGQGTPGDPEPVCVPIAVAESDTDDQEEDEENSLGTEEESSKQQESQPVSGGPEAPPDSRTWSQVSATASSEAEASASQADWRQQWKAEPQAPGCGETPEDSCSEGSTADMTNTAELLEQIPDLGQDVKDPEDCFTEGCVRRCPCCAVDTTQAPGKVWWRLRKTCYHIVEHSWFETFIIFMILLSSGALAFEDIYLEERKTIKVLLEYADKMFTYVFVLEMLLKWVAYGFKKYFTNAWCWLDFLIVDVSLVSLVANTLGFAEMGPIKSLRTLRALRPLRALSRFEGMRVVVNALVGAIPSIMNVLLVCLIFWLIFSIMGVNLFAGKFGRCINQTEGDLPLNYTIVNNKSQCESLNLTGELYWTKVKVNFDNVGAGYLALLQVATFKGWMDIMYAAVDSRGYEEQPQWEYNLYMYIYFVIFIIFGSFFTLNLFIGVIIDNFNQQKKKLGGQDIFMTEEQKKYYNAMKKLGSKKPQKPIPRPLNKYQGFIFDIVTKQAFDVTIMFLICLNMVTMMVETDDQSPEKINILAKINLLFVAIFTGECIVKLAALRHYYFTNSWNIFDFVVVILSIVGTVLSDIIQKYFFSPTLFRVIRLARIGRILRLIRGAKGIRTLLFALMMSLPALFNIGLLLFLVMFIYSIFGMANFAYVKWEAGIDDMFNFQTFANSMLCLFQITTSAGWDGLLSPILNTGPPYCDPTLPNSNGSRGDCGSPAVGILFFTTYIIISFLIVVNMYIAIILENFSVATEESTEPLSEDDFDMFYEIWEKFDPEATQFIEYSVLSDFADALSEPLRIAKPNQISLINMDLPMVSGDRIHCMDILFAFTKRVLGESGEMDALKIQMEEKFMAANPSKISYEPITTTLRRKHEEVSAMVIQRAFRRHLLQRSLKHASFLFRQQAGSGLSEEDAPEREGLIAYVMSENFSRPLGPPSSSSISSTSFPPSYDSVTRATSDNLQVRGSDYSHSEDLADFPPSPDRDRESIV

SMILES | IC50 (hNav1.5; Table 6) | IC50 (hNav1.4; Table 6) | Nav1.4/Nav1.7 (hNav1.4; Table 6) | Nav1.4/Nav1.7 (hNav1.7 [1]; [3]) | Nav1.5/Nav1.7 (hNav1.7 [1]; [3]) | IC50 (hNav1.3; Table 6) | IC50 (hNav1.7 [2]) | IC50 (hNav1.5; Table 9) | IC50 (hNav1.4; Table 9) | Nav1.4/Nav1.7 (hNav1.4; Table 9) | IC50 (hNav1.7 [1]; read-out: PX hNav1.7 Tonic IC50) | IC50 (hNav1.3; Table 9) | IC50 (hNav1.7 [2]; IonWorks Quattro, […])
CC[C@H](C)[C@H](NC(=O)[C@@H](NC(=O)[C@H](CCCCN)NC(=O)[C@H](CCCNC(=N)N)NC(=O)[C@@H]1CSSC[C@@H]2NC(=O)[C@H](C)NC(=O)[C@H](CCCNC(=N)N)NC(=O)[C@H](CCCCN)NC(=O)[C@H](CO)NC(=O)[C@H](CC(=O)O)NC(=O)[C@@H]3CSSC[C@H](NC(=O)[C@H](CCCNC(=N)N)NC(=O)[C@H](CC(C)C)NC(=O)CNC(=O)[C@H](CCC(=O)O)NC(=O)[C@H](CSSC[C@H](NC(=O)[C@@H](N)Cc4ccc(O)cc4)C(=O)N[C@@H](CCC(N)=O)C(=O)N[C@@H](CCCCN)C(=O)N[C@@H](Cc4c[nH]c5ccccc45)C(=O)N[C@@H](CCSC)C(=O)N[C@@H](Cc4cccc5ccccc45)C(=O)N[C@@H]([C@@H](C)O)C(=O)N3)NC2=O)C(=O)N[C@@H](CCCCN)C(=O)N[C@@H](CC(C)C)C(=O)N[C@@H](Cc2c[nH]c3ccccc23)C(=O)N1)[C@@H](C)CC)C(N)=O [compound 30] | 3.6 µM | 0.12 µM | 9 | 2 | 3550 | 0.1 µM | 0.013 µM | – | – | – | – | – | –
CCCC[C@@H]1NC(=O)[C@H](Cc2c[nH]c3ccccc23)NC(=O)[C@H](CCCCN)NC(=O)[C@H](CCC(N)=O)NC(=O)[C@@H](NC(=O)[C@@H](N)Cc2ccc(O)cc2)CSSC[C@@H]2NC(=O)[C@@H]3CSSC[C@@H](C(=O)N[C@@H](CCCNC(=N)N)C(=O)N[C@@H](CCCCN)C(=O)N[C@H](C(=O)N[C@@H](Cc4cn(CCCOCCOCCOCCOCCOCCOCCOCCOCCOCCOCCN)nn4)C(N)=O)[C@@H](C)CC)NC(=O)[C@H](Cc4c[nH]c5ccccc45)NC(=O)[C@H](CC(C)C)NC(=O)[C@H](CCCCN)NC(=O)[C@H](CSSC[C@H](NC(=O)[C@H]([C@@H](C)O)NC(=O)[C@H](Cc4c[nH]c5ccccc45)NC1=O)C(=O)N[C@@H](CC(=O)O)C(=O)N[C@@H](CO)C(=O)N[C@@H](CCCCN)C(=O)N[C@@H](CCCNC(=N)N)C(=O)N[C@@H](C)C(=O)N3)NC(=O)[C@H](CCCNC(=N)N)NC(=O)[C@H](CC(C)C)NC(=O)CNC(=O)[C@H](CCC(=O)O)NC2=O [compound 270] | – | – | – | – | – | – | – | > 7 µM | 0.75 µM | 2 | 22 nM | 3.9 µM | 0.4 µM
CC[C@H](C)[C@H](NC(=O)[C@@H](NC(=O)[C@H](CCCCN)NC(=O)[C@H](CCCNC(=N)N)NC(=O)[C@@H]1CSSC[C@@H]2NC(=O)[C@H](C)NC(=O)[C@H](CCCNC(=N)N)NC(=O)[C@H](CCCCN)NC(=O)[C@H](CO)NC(=O)[C@H](CC(=O)O)NC(=O)[C@@H]3CSSC[C@H](NC(=O)[C@H](CCCNC(=N)N)NC(=O)[C@H](CC(C)C)NC(=O)CNC(=O)[C@H](CCC(=O)O)NC(=O)[C@H](CSSC[C@H](NC(=O)[C@@H](N)Cc4ccc(O)cc4)C(=O)N[C@@H](CCC(N)=O)C(=O)N[C@@H](CCCCN)C(=O)N[C@@H](Cc4c[nH]c5ccccc45)C(=O)N[C@@H](CCSC)C(=O)N[C@@H](Cc4c[nH]c5ccccc45)C(=O)N[C@@H]([C@@H](C)O)C(=O)N3)NC2=O)C(=O)N[C@@H](CCCNC(=N)N)C(=O)N[C@@H](CC(C)C)C(=O)N[C@@H](Cc2c[nH]c3ccccc23)C(=O)N1)[C@@H](C)CC)C(N)=O [compound 104] | 2 µM | 0.17 µM | 11 | – | – | 0.08 µM | 0.016 µM | – | – | – | – | – | –
CC[C@H](C)[C@H](NC(=O)[C@@H](NC(=O)[C@H](CCCNC(=N)N)NC(=O)[C@H](CCCNC(=N)N)NC(=O)[C@@H]1CSSC[C@@H]2NC(=O)[C@H](C)NC(=O)[C@H](CCCNC(=N)N)NC(=O)[C@H](CCCCN)NC(=O)[C@H](CO)NC(=O)[C@H](CC(=O)O)NC(=O)[C@@H]3CSSC[C@H](NC(=O)[C@H](CCCNC(=N)N)NC(=O)[C@H](CC(C)C)NC(=O)CNC(=O)[C@H](CCC(=O)O)NC(=O)[C@H](CSSC[C@H](NC(=O)[C@@H](N)Cc4ccc(O)cc4)C(=O)N[C@@H](CCC(N)=O)C(=O)N[C@@H](CCCCN)C(=O)N[C@@H](Cc4c[nH]c5ccccc45)C(=O)N[C@@H](CCSC)C(=O)N[C@@H](Cc4c[nH]c5ccccc45)C(=O)N[C@@H]([C@@H](C)O)C(=O)N3)NC2=O)C(=O)N[C@@H](CCCCN)C(=O)N[C@@H](CC(C)C)C(=O)N[C@@H](Cc2c[nH]c3ccccc23)C(=O)N1)[C@@H](C)CC)C(N)=O [compound 107] | > 5 µM | 0.23 µM | 8 | – | – | 0.1 µM | 0.028 µM | – | – | – | – | – | –
CC[C@H](C)[C@H](NC(=O)[C@@H](NC(=O)[C@H](CCCCN)NC(=O)[C@H](CCCNC(=N)N)NC(=O)[C@@H]1CSSC[C@@H]2NC(=O)[C@H](C)NC(=O)[C@H](CCCNC(=N)N)NC(=O)[C@H](CCCCN)NC(=O)[C@H](CO)NC(=O)[C@H](CC(=O)O)NC(=O)[C@@H]3CSSC[C@H](NC(=O)[C@H](CCCNC(=N)N)NC(=O)[C@H](CC(C)C)NC(=O)CNC(=O)[C@H](CCC(=O)O)NC(=O)[C@H](CSSC[C@H](NC(=O)[C@@H](N)Cc4ccc(O)cc4)C(=O)N[C@@H](CCC(N)=O)C(=O)N[C@@H](CCCCN)C(=O)N[C@@H](Cc4c[nH]c5ccccc45)C(=O)N[C@@H](C)C(=O)N[C@@H](Cc4c[nH]c5ccccc45)C(=O)N[C@@H]([C@@H](C)O)C(=O)N3)NC2=O)C(=O)N[C@@H](CCCCN)C(=O)N[C@@H](CC(C)C)C(=O)N[C@@H](Cc2c[nH]c3ccccc23)C(=O)N1)[C@@H](C)CC)C(N)=O [compound 7] | > 5 µM | 0.28 µM | 3 | – | – | 0.16 µM | 0.094 µM | – | – | – | – | – | –
CC[C@H](C)[C@H](NC(=O)[C@@H](NC(=O)[C@H](CCCCN)NC(=O)[C@H](CCCNC(=N)N)NC(=O)[C@@H]1CSSC[C@@H]2NC(=O)[C@H](C)NC(=O)[C@H](CCCNC(=N)N)NC(=O)[C@H](CCCNC(=N)N)NC(=O)[C@H](CO)NC(=O)[C@H](CC(=O)O)NC(=O)[C@@H]3CSSC[C@H](NC(=O)[C@H](CCCNC(=N)N)NC(=O)[C@H](CC(C)C)NC(=O)CNC(=O)[C@H](CCC(=O)O)NC(=O)[C@H](CSSC[C@H](NC(=O)[C@@H](N)Cc4ccc(O)cc4)C(=O)N[C@@H](CCC(N)=O)C(=O)N[C@@H](CCCCN)C(=O)N[C@@H](Cc4c[nH]c5ccccc45)C(=O)N[C@@H](CCSC)C(=O)N[C@@H](Cc4c[nH]c5ccccc45)C(=O)N[C@@H]([C@@H](C)O)C(=O)N3)NC2=O)C(=O)N[C@@H](CCCCN)C(=O)N[C@@H](CC(C)C)C(=O)N[C@@H](Cc2c[nH]c3ccccc23)C(=O)N1)[C@@H](C)CC)C(N)=O [compound 99] | 2.5 µM | 0.15 µM | 19 | – | – | 0.05 µM | 0.008 µM | – | – | – | – | – | –
CC[C@H](C)[C@H](NC(=O)[C@H](C)NC(=O)[C@H](CCCCN)NC(=O)[C@H](CCCNC(=N)N)NC(=O)[C@@H]1CSSC[C@@H]2NC(=O)[C@H](C)NC(=O)[C@H](CCCNC(=N)N)NC(=O)[C@H](CCCCN)NC(=O)[C@H](CO)NC(=O)[C@H](CC(=O)O)NC(=O)[C@@H]3CSSC[C@H](NC(=O)[C@H](CCCNC(=N)N)NC(=O)[C@H](CC(C)C)NC(=O)CNC(=O)[C@H](CCC(=O)O)NC(=O)[C@H](CSSC[C@H](NC(=O)[C@@H](N)Cc4ccc(O)cc4)C(=O)N[C@@H](CCC(N)=O)C(=O)N[C@@H](CCCCN)C(=O)N[C@@H](Cc4c[nH]c5ccccc45)C(=O)N[C@@H](CCSC)C(=O)N[C@@H](Cc4c[nH]c5ccccc45)C(=O)N[C@@H]([C@@H](C)O)C(=O)N3)NC2=O)C(=O)N[C@@H](CCCCN)C(=O)N[C@@H](CC(C)C)C(=O)N[C@@H](Cc2c[nH]c3ccccc23)C(=O)N1)C(N)=O [compound 23] | > 5 µM | 0.29 µM | 10 | – | – | 0.25 µM | 0.03 µM | – | – | – | – | – | –
CC[C@H](C)[C@H](NC(=O)[C@@H](NC(=O)[C@H](CCCCN)NC(=O)[C@H](CCCNC(=N)N)NC(=O)[C@@H]1CSSC[C@@H]2NC(=O)[C@H](C)NC(=O)[C@H](CCCNC(=N)N)NC(=O)[C@H](CCCCN)NC(=O)[C@H](CO)NC(=O)[C@H](CC(=O)O)NC(=O)[C@@H]3CSSC[C@H](NC(=O)[C@H](CCCNC(=N)N)NC(=O)[C@H](CC(C)C)NC(=O)CNC(=O)[C@H](CCC(=O)O)NC(=O)[C@H](CSSC[C@H](NC(=O)[C@@H](N)Cc4ccc(O)cc4)C(=O)N[C@@H](CCC(N)=O)C(=O)N[C@@H](CCCNC(=N)N)C(=O)N[C@@H](Cc4c[nH]c5ccccc45)C(=O)N[C@@H](CCSC)C(=O)N[C@@H](Cc4c[nH]c5ccccc45)C(=O)N[C@@H]([C@@H](C)O)C(=O)N3)NC2=O)C(=O)N[C@@H](CCCCN)C(=O)N[C@@H](CC(C)C)C(=O)N[C@@H](Cc2c[nH]c3ccccc23)C(=O)N1)[C@@H](C)CC)C(N)=O [compound 92] | 2 µM | 0.16 µM | 11 | – | – | 0.07 µM | 0.014 µM | – | – | – | – | – | –
CC[C@H](C)[C@H](NC(=O)[C@@H](NC(=O)[C@H](CCCCN)NC(=O)[C@H](CCCNC(=N)N)NC(=O)[C@@H]1CSSC[C@@H]2NC(=O)[C@H](C)NC(=O)[C@H](CCCNC(=N)N)NC(=O)[C@H](CCCCN)NC(=O)[C@H](CO)NC(=O)[C@H](CC(=O)O)NC(=O)[C@@H]3CSSC[C@H](NC(=O)[C@H](CCCNC(=N)N)NC(=O)[C@H](CC(C)C)NC(=O)CNC(=O)[C@H](C)NC(=O)[C@H](CSSC[C@H](NC(=O)[C@@H](N)Cc4ccc(O)cc4)C(=O)N[C@@H](CCC(N)=O)C(=O)N[C@@H](CCCCN)C(=O)N[C@@H](Cc4c[nH]c5ccccc45)C(=O)N[C@@H](CCSC)C(=O)N[C@@H](Cc4c[nH]c5ccccc45)C(=O)N[C@@H]([C@@H](C)O)C(=O)N3)NC2=O)C(=O)N[C@@H](CCCCN)C(=O)N[C@@H](CC(C)C)C(=O)N[C@@H](Cc2c[nH]c3ccccc23)C(=O)N1)[C@@H](C)CC)C(N)=O [compound 14] | 2 µM | 0.06 µM | 8 | – | – | 0.08 µM | 0.008 µM | – | – | – | – | – | –
